Results from ChEMBL document CHEMBL4376823, “The discovery of a potent and selective third-generation EGFR kinase inhibitor as a therapy for EGFR L858R/T790M double mutant non-small cell lung cancer” (Eur J Med Chem, 2019).

Assays:
[1] = tested on: PC-9; assay: Antiproliferative activity against human PC9 cells expressing EGFR L858R mutant assessed as reduction in cell viability incubated for 72 hrs by MTT assay; type: functional, cell-based
[2] = tested on: NCI-H292; assay: Antiproliferative activity against human NCI-H292 cells expressing EGFR assessed as reduction in cell viability incubated for 72 hrs by MTT assay; type: functional, cell-based
[3] = tested on: NCI-H1975; assay: Antiproliferative activity against human NCI-H1975 cells expressing EGFR T790M/L858R mutant assessed as reduction in cell viability incubated for 72 hrs by MTT assay; type: functional, cell-based
[4] = biological target: Epidermal growth factor receptor (Homo sapiens, UniProt P00533, L858R); assay: Inhibition of recombinant human GST-tagged EGFR L858R mutant expressed in baculovirus expression system using Tyr 04 as substrate incubated for 1 hr by Z'-LYTE assay
Chain of Epidermal growth factor receptor (Homo sapiens, UniProt P00533, L858R) (P00533 25-1210 L858R limits assumed): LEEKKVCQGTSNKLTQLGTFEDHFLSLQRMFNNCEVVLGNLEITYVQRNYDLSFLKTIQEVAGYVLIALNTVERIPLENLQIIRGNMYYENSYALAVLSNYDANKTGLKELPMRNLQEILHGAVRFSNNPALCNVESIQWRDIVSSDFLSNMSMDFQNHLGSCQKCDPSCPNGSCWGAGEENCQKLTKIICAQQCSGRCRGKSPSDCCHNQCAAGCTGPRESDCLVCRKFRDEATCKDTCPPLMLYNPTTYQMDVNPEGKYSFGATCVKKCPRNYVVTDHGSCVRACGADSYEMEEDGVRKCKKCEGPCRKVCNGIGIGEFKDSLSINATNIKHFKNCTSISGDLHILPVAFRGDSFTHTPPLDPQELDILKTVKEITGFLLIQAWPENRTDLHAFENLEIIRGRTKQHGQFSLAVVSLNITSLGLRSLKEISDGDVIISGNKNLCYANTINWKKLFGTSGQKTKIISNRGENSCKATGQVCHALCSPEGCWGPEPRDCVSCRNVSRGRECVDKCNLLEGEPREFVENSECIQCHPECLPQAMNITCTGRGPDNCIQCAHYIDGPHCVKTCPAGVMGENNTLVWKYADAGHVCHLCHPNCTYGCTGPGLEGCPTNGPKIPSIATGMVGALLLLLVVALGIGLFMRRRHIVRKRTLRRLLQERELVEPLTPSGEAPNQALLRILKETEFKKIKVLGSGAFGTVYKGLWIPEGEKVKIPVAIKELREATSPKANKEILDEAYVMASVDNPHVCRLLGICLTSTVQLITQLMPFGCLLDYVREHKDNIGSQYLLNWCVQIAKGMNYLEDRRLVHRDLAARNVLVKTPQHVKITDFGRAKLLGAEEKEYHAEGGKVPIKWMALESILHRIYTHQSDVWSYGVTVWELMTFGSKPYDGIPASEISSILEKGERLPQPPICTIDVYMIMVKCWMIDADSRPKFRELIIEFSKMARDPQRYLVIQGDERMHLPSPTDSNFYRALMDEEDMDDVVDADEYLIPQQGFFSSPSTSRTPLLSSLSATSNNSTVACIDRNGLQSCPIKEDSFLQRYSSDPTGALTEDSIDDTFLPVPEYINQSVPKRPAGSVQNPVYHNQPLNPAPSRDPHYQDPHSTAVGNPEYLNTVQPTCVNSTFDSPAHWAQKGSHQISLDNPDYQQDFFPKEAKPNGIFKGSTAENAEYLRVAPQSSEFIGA

[5] = biological target: Epidermal growth factor receptor (Homo sapiens, UniProt P00533); assay: Inhibition of recombinant human GST-tagged EGFR (668 to 1210 residues) expressed in baculovirus expression system using Tyr 04 as substrate incubated for 1 hr by Z'-LYTE assay
Chain of Epidermal growth factor receptor (Homo sapiens, UniProt P00533) (P00533 whole entry, the tested form may be a part): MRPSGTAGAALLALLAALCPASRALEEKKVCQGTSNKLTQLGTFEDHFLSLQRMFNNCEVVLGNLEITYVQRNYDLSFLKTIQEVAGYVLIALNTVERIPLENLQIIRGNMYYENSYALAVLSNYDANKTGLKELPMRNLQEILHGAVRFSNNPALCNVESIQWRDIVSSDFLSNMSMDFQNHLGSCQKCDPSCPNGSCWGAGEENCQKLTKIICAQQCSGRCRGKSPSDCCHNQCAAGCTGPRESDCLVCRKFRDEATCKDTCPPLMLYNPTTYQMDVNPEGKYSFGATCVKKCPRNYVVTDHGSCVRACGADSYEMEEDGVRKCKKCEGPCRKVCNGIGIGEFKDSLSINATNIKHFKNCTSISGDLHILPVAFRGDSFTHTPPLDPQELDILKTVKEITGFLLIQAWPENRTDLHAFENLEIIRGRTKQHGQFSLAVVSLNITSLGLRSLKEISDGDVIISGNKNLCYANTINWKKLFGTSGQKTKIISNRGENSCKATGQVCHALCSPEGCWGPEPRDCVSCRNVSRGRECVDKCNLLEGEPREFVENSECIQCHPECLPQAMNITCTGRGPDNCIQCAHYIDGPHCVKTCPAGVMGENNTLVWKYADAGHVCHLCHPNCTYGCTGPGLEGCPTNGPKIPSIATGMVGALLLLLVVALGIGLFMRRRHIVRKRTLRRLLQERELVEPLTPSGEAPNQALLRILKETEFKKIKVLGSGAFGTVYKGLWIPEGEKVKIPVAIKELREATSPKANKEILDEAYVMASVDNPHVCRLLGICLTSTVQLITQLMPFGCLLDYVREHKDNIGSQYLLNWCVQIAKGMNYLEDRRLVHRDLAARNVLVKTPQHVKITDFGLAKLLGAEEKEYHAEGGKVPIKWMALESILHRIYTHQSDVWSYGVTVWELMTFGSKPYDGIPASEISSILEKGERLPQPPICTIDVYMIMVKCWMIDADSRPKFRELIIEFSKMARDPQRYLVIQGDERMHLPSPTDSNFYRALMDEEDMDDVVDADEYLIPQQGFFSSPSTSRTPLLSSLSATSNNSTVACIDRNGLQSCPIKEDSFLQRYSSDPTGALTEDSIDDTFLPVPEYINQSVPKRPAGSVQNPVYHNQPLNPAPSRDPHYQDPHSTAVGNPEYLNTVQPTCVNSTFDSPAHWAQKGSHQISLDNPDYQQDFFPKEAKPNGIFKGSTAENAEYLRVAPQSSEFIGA

[6] = biological target: Epidermal growth factor receptor (Homo sapiens, UniProt P00533, L858R/T790M); assay: Inhibition of recombinant human GST-tagged EGFR T790M/L858R mutant expressed in baculovirus expression system using Tyr 04 as substrate incubated for 1 hr by Z'-LYTE assay
Chain of Epidermal growth factor receptor (Homo sapiens, UniProt P00533, L858R/T790M) (P00533 25-1210 T790M/L858R limits assumed): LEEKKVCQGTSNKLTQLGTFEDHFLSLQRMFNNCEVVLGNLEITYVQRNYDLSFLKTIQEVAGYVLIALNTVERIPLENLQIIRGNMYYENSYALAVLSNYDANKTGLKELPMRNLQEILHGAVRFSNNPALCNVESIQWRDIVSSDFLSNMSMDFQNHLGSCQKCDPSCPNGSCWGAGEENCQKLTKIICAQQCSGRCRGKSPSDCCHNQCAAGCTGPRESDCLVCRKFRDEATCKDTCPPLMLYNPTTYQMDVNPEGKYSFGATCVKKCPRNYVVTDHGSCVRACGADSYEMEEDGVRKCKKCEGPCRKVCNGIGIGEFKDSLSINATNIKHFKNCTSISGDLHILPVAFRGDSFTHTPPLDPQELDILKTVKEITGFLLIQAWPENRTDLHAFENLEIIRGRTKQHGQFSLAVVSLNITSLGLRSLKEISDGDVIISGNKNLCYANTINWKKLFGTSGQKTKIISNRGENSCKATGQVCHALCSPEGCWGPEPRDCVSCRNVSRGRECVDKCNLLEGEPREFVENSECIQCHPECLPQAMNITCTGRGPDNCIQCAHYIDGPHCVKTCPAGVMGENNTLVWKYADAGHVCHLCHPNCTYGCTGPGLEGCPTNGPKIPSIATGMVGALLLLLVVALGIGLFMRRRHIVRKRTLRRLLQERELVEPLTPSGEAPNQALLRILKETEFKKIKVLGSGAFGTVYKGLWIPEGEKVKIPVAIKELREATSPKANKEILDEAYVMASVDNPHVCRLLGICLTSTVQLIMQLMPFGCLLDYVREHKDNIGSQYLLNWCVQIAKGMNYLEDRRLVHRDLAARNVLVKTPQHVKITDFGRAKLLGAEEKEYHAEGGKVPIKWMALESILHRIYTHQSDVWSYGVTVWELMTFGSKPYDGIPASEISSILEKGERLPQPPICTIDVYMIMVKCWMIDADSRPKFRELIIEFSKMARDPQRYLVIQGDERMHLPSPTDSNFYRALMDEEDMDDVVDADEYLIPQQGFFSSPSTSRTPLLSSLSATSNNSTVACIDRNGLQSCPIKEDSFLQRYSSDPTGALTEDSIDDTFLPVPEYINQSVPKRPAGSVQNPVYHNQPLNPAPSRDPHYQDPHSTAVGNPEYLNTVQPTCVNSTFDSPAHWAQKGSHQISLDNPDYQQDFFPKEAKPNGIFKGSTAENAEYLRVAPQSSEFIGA

[7] = tested on: NCI-H1975; assay: Antitumor activity against human NCI-H1975 cells xenografted in BALB/c mouse assessed as tumor growth inhibition at 20 mg/kg, ig for one week; type: functional
[8] = Toxicity in BALB/c mouse xenografted with human NCI-H1975 cells assessed as body weight at 20 mg/kg, ig for one week (reference value: 1.6 g); type: organism-based; settings: in vivo, po
[9] = Toxicity in BALB/c mouse xenografted with human NCI-H1975 cells assessed as mortality at 10 to 20 mg/kg, ig for one week; type: organism-based; settings: in vivo, po
[10] = tested on: NCI-H1975; assay: Antitumor activity against human NCI-H1975 cells xenografted in BALB/c mouse assessed as tumor volume at 20 mg/kg, ig for one week (reference value: 835.52 mm3); type: functional
[11] = tested on: HK-2; assay: Cytotoxicity against human HK2 cells expressing EGFR assessed as reduction in cell viability incubated for 72 hrs by MTT assay; type: cell-based; settings: HK-2, 72 h
[12] = Selectivity index, ratio of IC50 for human HEK293A cells to IC50 for human NCI-H1975 cells expressing EGFR T790M/L858R mutant; type: toxicity
[13] = tested on: L02; assay: Cytotoxicity against human LO2 cells expressing EGFR assessed as reduction in cell viability incubated for 72 hrs by MTT assay; type: cell-based; settings: L02, 72 h
[14] = tested on: L02; assay: Cytotoxicity against human LO2 cells assessed as change in cell morphology at 5 and 10 uM incubated for 48 hrs by microscopic analysis; type: cell-based; settings: l02, 48 h
[15] = Selectivity index, ratio of IC50 for human LO2 cells to IC50 for human NCI-H1975 cells expressing EGFR T790M/L858R mutant; type: toxicity
[16] = Cytotoxicity against human HEK293A cells assessed as change in cell morphology at 5 and 10 uM incubated for 48 hrs by microscopic analysis; type: cell-based; settings: hek293-a
[17] = Selectivity index, ratio of IC50 for human BJ cells to IC50 for human NCI-H1975 cells expressing EGFR T790M/L858R mutant; type: toxicity
[18] = tested on: HK-2; assay: Cytotoxicity against human HK2 cells assessed as change in cell morphology at 5 and 10 uM incubated for 48 hrs by microscopic analysis; type: cell-based; settings: hk-2, 48 h
[19] = tested on: BJ; assay: Cytotoxicity against human BJ cells expressing EGFR assessed as reduction in cell viability incubated for 72 hrs by MTT assay; type: cell-based
[20] = Selectivity index, ratio of IC50 for human HLF cells to IC50 for human NCI-H1975 cells expressing EGFR T790M/L858R mutant
[21] = Cytotoxicity against human HEK293A cells expressing EGFR assessed as reduction in cell viability incubated for 72 hrs by MTT assay; type: cell-based, HEK293-A
[22] = Cytotoxicity against human HLF cells expressing EGFR assessed as reduction in cell viability incubated for 72 hrs by MTT assay; type: cell-based
[23] = Selectivity index, ratio of IC50 for human HK2 cells to IC50 for human NCI-H1975 cells expressing EGFR T790M/L858R mutant
[24] = Toxicity in BALB/c mouse xenografted with human NCI-H1975 cells assessed as body weight at 10 mg/kg, ig for one week (reference value: 1.6 g); type: organism-based; settings: in vivo, po
[25] = tested on: NCI-H1975; assay: Antitumor activity against human NCI-H1975 cells xenografted in BALB/c mouse assessed as tumor growth inhibition at 10 mg/kg, ig for one week; type: functional
[26] = tested on: NCI-H1975; assay: Antitumor activity against human NCI-H1975 cells xenografted in BALB/c mouse assessed as tumor volume at 10 mg/kg, ig for one week (reference value: 835.52 mm3); type: functional
[27] = tested on: NCI-H1975; assay: Antitumor activity against human NCI-H1975 cells xenografted in ig dosed BALB/c mouse assessed as tumor growth inhibition for one week; type: functional, organism-based
[28] = tested on: NCI-H1975; assay: Inhibition of cell migration in human NCI-H1975 cells at 25 nM incubated for 24 hrs by phase contrast microscopy relative to control; type: functional
[29] = Mus musculus, NCI-H1975, po, 168 h, read-out: TGI

C=CC(=O)Nc1cc(Nc2nccc(-c3cn(C)c4ccccc34)n2)c(OC)cc1N(C)CC[S+](C)[O-] (stereo not given)
IC50 ([1]; Homo sapiens, PC-9, 72 h): 1490 nM | IC50 ([2]; Homo sapiens, NCI-H292, 72 h): 13900 nM | IC50 ([3]; Homo sapiens, NCI-H1975, 72 h): 1210 nM | IC50 [4]: 475 nM | IC50 [5]: 1740 nM | IC50 [6]: 105 nM

C=CC(=O)Nc1cc(Nc2nccc(-c3cn(C)c4ccccc34)n2)c(OC)cc1N(C)CCCl
IC50 ([1]; Homo sapiens, PC-9, 72 h): 1100 nM | IC50 ([2]; Homo sapiens, NCI-H292, 72 h): 12100 nM | IC50 ([3]; Homo sapiens, NCI-H1975, 72 h): 654 nM | IC50 [4]: 421 nM | IC50 [5]: 1980 nM | IC50 [6]: 122 nM

C=CC(=O)Nc1cc(Nc2nccc(-c3cn(C)c4ccccc34)n2)c(OC)cc1N1CCS(=O)(=O)CC1
IC50 ([1]; Homo sapiens, PC-9, 72 h): 101 nM | IC50 ([2]; Homo sapiens, NCI-H292, 72 h): 3720 nM | IC50 ([3]; Homo sapiens, NCI-H1975, 72 h): 96 nM | IC50 [4]: 46 nM | IC50 [5]: 339 nM | IC50 [6]: 38 nM

C=CC(=O)Nc1cc(Nc2nccc(-c3cn(C)c4ccccc34)n2)c(OC)cc1N1CC[S+]([O-])CC1
IC50 ([1]; Homo sapiens, PC-9, 72 h): 177 nM | IC50 ([2]; Homo sapiens, NCI-H292, 72 h): 8360 nM | IC50 ([3]; Homo sapiens, NCI-H1975, 72 h): 106 nM | IC50 [4]: 65 nM | IC50 [5]: 421 nM | IC50 [6]: 75 nM

C=CC(=O)Nc1cc(Nc2nccc(-c3cn(C)c4ccccc34)n2)c(OC)cc1N1CCSCC1
IC50 ([1]; Homo sapiens, PC-9, 72 h): 308 nM | IC50 ([2]; Homo sapiens, NCI-H292, 72 h): 19300 nM | IC50 ([3]; Homo sapiens, NCI-H1975, 72 h): 399 nM | IC50 [4]: 79 nM | IC50 [5]: 522 nM | IC50 [6]: 64 nM

C=CC(=O)Nc1cc(Nc2nccc(-c3cn(C)c4ccccc34)n2)c(OC)cc1N(C)CCO
IC50 ([1]; Homo sapiens, PC-9, 72 h): 137 nM | IC50 ([2]; Homo sapiens, NCI-H292, 72 h): 8320 nM | IC50 ([3]; Homo sapiens, NCI-H1975, 72 h): 184 nM

C=CC(=O)Nc1cc(Nc2nccc(-c3cn(C)c4ccccc34)n2)c(OC)cc1N(C)CCN(C)C.O=S(=O)(O)O
TGI [7]: 98.49% | Activity [8]: 1.9 g | Activity [9]: Non-Toxic | Activity [10]: 18.23 mm3

C=CC(=O)Nc1cc(Nc2nccc(-c3cn(C)c4ccccc34)n2)c(OC)cc1N(C)CCSC
IC50 ([1]; Homo sapiens, PC-9, 72 h): 3900 nM | IC50 ([2]; Homo sapiens, NCI-H292, 72 h): 17900 nM | IC50 ([3]; Homo sapiens, NCI-H1975, 72 h): 2800 nM | IC50 [4]: 308 nM | IC50 [5]: 1430 nM | IC50 [6]: 215 nM

C=CC(=O)Nc1cc(Nc2nccc(-c3cn(C)c4ccccc34)n2)c(OC)cc1SCCN(C)C
IC50 ([1]; Homo sapiens, PC-9, 72 h): 44 nM | IC50 ([2]; Homo sapiens, NCI-H292, 72 h): 1040 nM | IC50 ([3]; Homo sapiens, NCI-H1975, 72 h): 49 nM | IC50 [4]: 14 nM | IC50 [5]: 329 nM | IC50 [6]: 11 nM

C=CC(=O)Nc1cc(Nc2nccc(-c3cn(C)c4ccccc34)n2)c(OC)cc1S(=O)(=O)CCN(C)C
IC50 ([1]; Homo sapiens, PC-9, 72 h): 2280 nM | IC50 ([2]; Homo sapiens, NCI-H292, 72 h): 6420 nM | IC50 ([3]; Homo sapiens, NCI-H1975, 72 h): 992 nM

C=CC(=O)Nc1cc(Nc2nccc(-c3cn(C)c4ccccc34)n2)c(OC)cc1[S+]([O-])CCN(C)C (racemic)
IC50 [11]: > 10000 nM | selectivity ratio ([12]; read-out: Ratio IC50): 322 | IC50 [13]: > 10000 nM | Activity [14]: Non-Toxic | selectivity ratio ([15]; read-out: Ratio IC50): > 769 | Activity [16]: Non-Toxic | IC50 ([1]; Homo sapiens, PC-9, 72 h): 17 nM | IC50 ([2]; Homo sapiens, NCI-H292, 72 h): 1050 nM | selectivity ratio ([17]; read-out: Ratio IC50): > 769 | Activity [18]: Non-Toxic | IC50 [19]: > 10000 nM | IC50 ([3]; Homo sapiens, NCI-H1975, 72 h): 13 nM | IC50 [4]: 7 nM | IC50 [5]: 239 nM | Ratio IC50 [20]: 715 | IC50 ([21]; hek293-a): 4190 nM | IC50 ([22]; Homo sapiens, HLF, 72 h): 9310 nM | IC50 [6]: 5 nM | Ratio IC50 [23]: >769

C=CC(=O)Nc1cc(Nc2nccc(-c3cn(C)c4ccccc34)n2)c(OC)cc1[S+]([O-])CCN(C)C.O=S(=O)(O)O (single isomer, unassigned; (+))
Activity [24]: 2.1 g | TGI [7]: 85.41% | TGI [25]: 81.82% | Activity [8]: 2.1 g | Activity [26]: 141.5 mm3 | Activity [10]: 117.87 mm3

C=CC(=O)Nc1cc(Nc2nccc(-c3cn(C)c4ccccc34)n2)c(OC)cc1[S+]([O-])CCN(C)C (single isomer, unassigned; (+))
TGI [27]: Dose-dependent effect

C=CC(=O)Nc1cc(Nc2nccc(-c3cn(C)c4ccccc34)n2)c(OC)cc1[S+]([O-])CCN(C)C.O=S(=O)(O)O (single isomer, unassigned; (-))
Activity [24]: 1.6 g | inhibition in vivo at 20 mg/kg [7, 29]: 94.3% | inhibition in vivo at 10 mg/kg [25, 29]: 87.6% | Activity [8]: 2.4 g | Activity [26]: 106.81 mm3 | Activity [9]: Non-Toxic | Activity [10]: 48.23 mm3

C=CC(=O)Nc1cc(Nc2nccc(-c3cn(C)c4ccccc34)n2)c(OC)cc1[S+]([O-])CCN(C)C (stereo in doubt; (+)-4i)
Ratio IC50 [12]: 233 | Ratio IC50 [15]: > 625 | IC50 ([1]; pc-9): 18 nM | IC50 ([2]; nci-h292): 1340 nM | Ratio IC50 [17]: > 625 | IC50 ([3]; nci-h1975): 16 nM | IC50 [4]: 6 nM | IC50 [5]: 318 nM | Ratio IC50 [20]: 233 | IC50 ([21]; hek293-a): 3730 nM | IC50 [22]: 9720 nM | IC50 [6]: 5 nM | Ratio IC50 [23]: >625

C=CC(=O)Nc1cc(Nc2nccc(-c3cn(C)c4ccccc34)n2)c(OC)cc1N(C)CCN(C)C [OSIMERTINIB]
IC50 [11]: 3560 nM | IC50 [13]: […] | Activity [14]: Toxic | Activity [16]: Toxic | inhibition (INH) [28]: 60.54% | IC50 ([1]; Homo sapiens, PC-9, 72 h): […] | IC50 ([2]; Homo sapiens, NCI-H292, 72 h): 1080 nM | Activity [18]: Toxic | IC50 [19]: > 10000 nM | IC50 ([3]; Homo sapiens, NCI-H1975, 72 h): […] | IC50 ([21]; Homo sapiens, HEK293-A, 72 h): 2420 nM | IC50 ([22]; Homo sapiens, HLF, 72 h): 8740 nM
